The values that follow come from US10336762B2 (priority 2017, dated 2019).

Where only a bound is given, the exact number is not on record here.

Assay [1] has as its system TNFα. Briefly: cells. To be noted: Homo sapiens, Monocyte, LPS-stimulated human monocytes, TNFα by TR-FRET; read-out: EC50 TNF. Format: cell-based, human.
Assay [2] has as its target IRAK4 enzyme (Homo sapiens (Human), UniProt Q9NWZ3). Briefly: biochemical. Format: biochemical. To be noted: IRAK4 enzyme, TR-FRET, 500 μM ATP. (In TR-FRET formats the signal depends on donor and acceptor labels being close together.)

IRAK4 enzyme, sequence (Q9NWZ3 whole entry): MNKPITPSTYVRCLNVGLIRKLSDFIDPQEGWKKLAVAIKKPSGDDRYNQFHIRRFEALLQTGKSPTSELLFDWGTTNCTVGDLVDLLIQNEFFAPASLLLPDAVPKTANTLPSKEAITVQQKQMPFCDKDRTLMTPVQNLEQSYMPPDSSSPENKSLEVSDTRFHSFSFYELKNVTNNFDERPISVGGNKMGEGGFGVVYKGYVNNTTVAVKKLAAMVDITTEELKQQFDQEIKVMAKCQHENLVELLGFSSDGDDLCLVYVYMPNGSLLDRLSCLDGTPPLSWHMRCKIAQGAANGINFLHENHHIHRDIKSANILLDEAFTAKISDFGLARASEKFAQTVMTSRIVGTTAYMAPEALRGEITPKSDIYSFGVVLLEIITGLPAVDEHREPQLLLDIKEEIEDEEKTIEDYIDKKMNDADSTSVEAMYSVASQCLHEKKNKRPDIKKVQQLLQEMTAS

The term EC50 denotes the concentration at which the effect is half-maximal. Usually IC50 stands for the concentration needed to halve the response being measured. A lower IC50 goes with inhibition by little substance. As to `COC(=O)NC[C@H]1C[C@H](Nc2cc(-c3ccc4cc(C#N)cnn34)ncc2C(=O)NCC(=O)N2CC(F)(F)C2)C1` [Example 952, methyl (((1r,3r)-3-((2-(3-cyanopyrrolo[1,2-b]pyridazin-7-yl)-5-((2-(3,3-difluoroazetidin-1-yl)-2-oxoethyl)carbamoyl)pyridin-4-yl)amino)cyclo-butyl)methyl)carbamate], in assay [1], the EC50 was 62 nM. The compound further displayed an IC50 in assay [2] of less than 1 nM.

Take `N#Cc1cnn2c(-c3cc(NC45CCC(O)(CC4)CC5)c(C(=O)NCC(=O)N4CC[C@@H](O)C4)cn3)ccc2c1` [Example 953, (R)-6-(3-cyanopyrrolo[1,2-b]pyridazin-7-yl)-4-((4-hydroxybicyclo[2.2.2]octan-1-yl)amino)-N-(2-(3-hydroxypyrrolidin-1-yl)-2-oxoethyl) nicotinamide]: in assay [1], the concentration for a half-maximal effect (EC50) is 240 nM. For the same compound, in assay [2], the IC50 was less than 1 nM.

As for `CC1(O)CN(C(=O)CNC(=O)c2cnc(-c3ccc4cc(C#N)cnn34)cc2NC23CCC(O)(CC2)CC3)C1` [Example 954, 6-(3-cyanopyrrolo[1,2-b]pyridazin-7-yl)-N-(2-(3-hydroxy-3-methylazetidin-1-yl)-2-oxoethyl)-4-((4-hydroxybicyclo[2.2.2]octan-1-yl)amino) nicotinamide], in assay [1], the EC50 is 213 nM. In assay [2], the half-inhibitory concentration (IC50) was less than 1 nM.

As to `N#Cc1cnn2c(-c3cc(NC45CCC(O)(CC4)CC5)c(C(=O)N[C@H]4CNC4=O)cn3)ccc2c1` [Example 955, (S)-6-(3-cyanopyrrolo[1,2-b]pyridazin-7-yl)-4-((4-hydroxybicyclo[2.2.2]octan-1-yl)amino)-N-(2-oxo-azetidin-3-yl)nicotinamide], in assay [1], the EC50 amounted to 399 nM. In assay [2], the IC50 is less than 1 nM.

Take `CC(C)(O)[C@H](F)CNC(=O)c1cnc(-c2ccc3cc(C#N)cnn23)cc1Nc1ccc(-c2cn[nH]c2)cn1` [Example 956, (R)-4-((5-(1H-pyrazol-4-yl)pyridin-2-yl)amino)-6-(3-cyanopyrrolo[1,2-b]pyridazin-7-yl)-N-(2-fluoro-3-hydroxy-3-methyl-butyl)nicotinamide]: the EC50 in assay [1] came out at 31 nM. In assay [2], this compound yielded a half-inhibitory concentration (IC50) of less than 1 nM.

For the compound `N#Cc1cnn2c(-c3cc(NC45CCC(O)(CC4)CC5)c(C(=O)N[C@H]4CCCNC4=O)cn3)ccc2c1` [Example 957, (S)-6-(3-cyanopyrrolo[1,2-b]pyridazin-7-yl)-4-((4-hydroxybicyclo[2.2.2]octan-1-yl)amino)-N-(2-oxo-piperidin-3-yl)nicotinamide], in assay [1], the EC50 is 173 nM. Also, in assay [2], the IC50 is less than 1 nM.

On to `N#Cc1cnn2c(-c3cc(NC45CCC(O)(CC4)CC5)c(C(=O)N[C@@H]4CCCNC4=O)cn3)ccc2c1` [Example 958, (R)-6-(3-cyanopyrrolo[1,2-b]pyridazin-7-yl)-4-((4-hydroxybicyclo[2.2.2]octan-1-yl)amino)-N-(2-oxo-piperidin-3-yl)nicotinamide], for which the EC50 in assay [1] amounted to 219 nM. The compound further registered an IC50 in assay [2] of 1 nM.

Turning to `N#Cc1cnn2c(-c3cc(NC45CCC(O)(CC4)CC5)c(C(=O)N[C@@H]4CCNC4=O)cn3)ccc2c1` [Example 959, (R)-6-(3-cyanopyrrolo[1,2-b]pyridazin-7-yl)-4-((4-hydroxybicyclo[2.2.2]octan-1-yl)amino)-N-(2-oxo-pyrrolidin-3-yl)nicotinamide], the EC50 in assay [1] was 206 nM. In assay [2], this compound had a 50% inhibitory concentration (IC50) of less than 1 nM.

With `N#Cc1cnn2c(-c3cc(NC45CCC(O)(CC4)CC5)c(C(=O)N[C@H]4CCNC4=O)cn3)ccc2c1` [Example 960, (S)-6-(3-cyanopyrrolo[1,2-b]pyridazin-7-yl)-4-((4-hydroxybicyclo[2.2.2]octan-1-yl)amino)-N-(2-oxo-pyrrolidin-3-yl)nicotinamide], in assay [1], the EC50 was determined as 316 nM. The same compound returned a half-inhibitory concentration (IC50) in assay [2] of 1 nM.

Take `N#Cc1cnn2c(-c3cc(NC45CCC(O)(CC4)CC5)c(C(=O)NCC(F)(F)C(=O)N4CC(F)(F)C4)cn3)ccc2c1` [Example 961, 6-(3-cyanopyrrolo[1,2-b]pyridazin-7-yl)-N-(3-(3,3-difluoroazetidin-1-yl)-2,2-difluoro-3-oxopropyl)-4-((4-hydroxybicyclo[2.2.2]octan-1-yl)amino)nicotinamide]: the EC50 in assay [1] was 382 nM. This compound also showed an IC50 in assay [2] of 2 nM.

Consider `CN(C)C(=O)C(F)(F)CNC(=O)c1cnc(-c2ccc3cc(C(N)=O)cnn23)cc1NC12CCC(O)(CC1)CC2` [Example 962, 7-(5-((3-(dimethylamino)-2,2-difluoro-3-oxopropyl)carbamoyl)-4-((4-hydroxybicyclo[2.2.2]octan-1-yl)amino)pyridin-2-yl)pyrrolo[1,2-b]pyridazine-3-carboxamide], for which the EC50 in assay [1] was more than 10000 nM. This compound also registered an IC50 in assay [2] of 650 nM.

Regarding `NC(=O)c1cnn2c(-c3cc(NC45CCC(O)(CC4)CC5)c(C(=O)NCC(F)(F)C(=O)N4CC(F)(F)C4)cn3)ccc2c1` [Example 963, 7-(5-((3-(3,3-difluoro-azetidin-1-yl)-2,2-difluoro-3-oxopropyl)carbamoyl)-4-((4-hydroxybicyclo[2.2.2]octan-1-yl)amino)pyridin-2-yl)pyrrolo[1,2-b]pyridazine-3-carboxamide], the 50% effective concentration (EC50) in assay [1] was more than 10000 nM. This compound also had an IC50 in assay [2] of 394 nM.

In the case of `N#Cc1cnn2c(-c3cc(NC45CCC(O)(CC4)CC5)c(C(=O)NC4(CF)CC4)cn3)ccc2c1` [Example 964, 6-(3-cyanopyrrolo[1,2-b]pyridazin-7-yl)-N-(1-(fluoromethyl)cyclo-propyl)-4-((4-hydroxy-bicyclo[2.2.2]octan-1-yl)amino)nicotinamide], in assay [1], the 50% effective concentration (EC50) was 68 nM. In assay [2], this compound yielded a half-inhibitory concentration (IC50) of 1 nM.

Consider `CC(C)(O)[C@H](F)CNC(=O)c1cnc(-c2ccc3cc(C#N)cnn23)cc1Nc1ccc(Cl)nc1` [Example 965, (R)-4-((6-chloropyridin-3-yl)amino)-6-(3-cyanopyrrolo[1,2-b]pyridazin-7-yl)-N-(2-fluoro-3-hydroxy-3-methylbutyl)nicotinamide], for which the EC50 in assay [1] turned out to be 26 nM. The compound further displayed a concentration for half-maximal inhibition (IC50) in assay [2] of less than 1 nM.

`CC(C)(O)[C@H](F)CNC(=O)c1cnc(-c2ccc3cc(C#N)cnn23)cc1Nc1cnc(-c2ccc3cc(C#N)cnn23)nc1` [Example 966, (R)-6-(3-cyanopyrrolo[1,2-b]pyridazin-7-yl)-4-((2-(3-cyanopyrrolo[1,2-b]pyridazin-7-yl)pyrimidin-5-yl)amino)-N-(2-fluoro-3-hydroxy-3-methylbutyl) nicotinamide]: the EC50 in assay [1] is more than 10000 nM. For the same compound, the IC50 in assay [2] was 2 nM.

For `CC(C)(O)[C@H](F)CNC(=O)c1cnc(-c2ccc3cc(C#N)cnn23)cc1Nc1ccc(-c2cnoc2)nc1` [Example 967, (R)-6-(3-cyanopyrrolo[1,2-b]pyridazin-7-yl)-N-(2-fluoro-3-hydroxy-3-methylbutyl)-4-((6-(isoxazol-4-yl)pyridin-3-yl)amino) nicotinamide], the concentration giving a half-maximal response (EC50) in assay [1] came out at 156 nM. The same compound registered a half-maximal inhibitory concentration (IC50) in assay [2] of 3 nM.

With `Cc1nc(-c2ccc(Nc3cc(-c4ccc5cc(C#N)cnn45)ncc3C(=O)NC[C@@H](F)C(C)(C)O)cc2)no1` [Example 968, (R)-6-(3-cyanopyrrolo[1,2-b]pyridazin-7-yl)-N-(2-fluoro-3-hydroxy-3-methylbutyl)-4-((4-(5-methyl-1,2,4-oxadiazol-3-yl)phenyl)amino) nicotinamide], in assay [1], the EC50 was 81 nM. The compound also showed a half-maximal inhibitory concentration (IC50) in assay [2] of 1 nM.

For the compound `CC(C)(O)[C@H](F)CNC(=O)c1cnc(-c2ccc3cc(C#N)cnn23)cc1Nc1cnc(Cl)cn1` [Example 970, (R)-4-((5-chloropyrazin-2-yl)amino)-6-(3-cyano-pyrrolo[1,2-b]pyridazin-7-yl)-N-(2-fluoro-3-hydroxy-3-methylbutyl)nicotinamide], the concentration for a half-maximal effect (EC50) in assay [1] is 57 nM. Further, the half-inhibitory concentration (IC50) in assay [2] is less than 1 nM.

Consider `CC(C)(O)[C@H](F)CNC(=O)c1cnc(-c2ccc3cc(C#N)cnn23)cc1Nc1cnc(Cl)nc1` [Example 971, (R)-4-((2-chloropyrimidin-5-yl)amino)-6-(3-cyano-pyrrolo[1,2-b]pyridazin-7-yl)-N-(2-fluoro-3-hydroxy-3-methylbutyl)nicotinamide], for which the EC50 in assay [1] was determined as 74 nM. This compound also returned an IC50 in assay [2] of less than 1 nM.

For the compound `CC(C)(O)[C@H](F)CNC(=O)c1cnc(-c2ccc3cc(C#N)cnn23)cc1Nc1cnc(-c2cn[nH]c2)cn1` [Example 972, (R)-4-((5-(1H-pyrazol-4-yl)pyrazin-2-yl)amino)-6-(3-cyanopyrrolo[1,2-b]pyridazin-7-yl)-N-(2-fluoro-3-hydroxy-3-methylbutyl)nicotinamide], the EC50 in assay [1] was 12 nM. This compound yielded a half-maximal inhibitory concentration (IC50) in assay [2] of less than 1 nM.

Take `CC(C)(O)[C@H](F)CNC(=O)c1cnc(-c2ccc3cc(C#N)cnn23)cc1Nc1ccc2nncn2c1` [Example 973, (R)-4-([1,2,4]triazolo[4,3-a]pyridin-6-ylamino)-6-(3-cyanopyrrolo[1,2-b]pyridazin-7-yl)-N-(2-fluoro-3-hydroxy-3-methylbutyl)nicotinamide]: the EC50 in assay [1] is 1910 nM. In assay [2], this compound displayed a concentration for half-maximal inhibition (IC50) of 2 nM.

On to `CC(C)(O)[C@H](F)CNC(=O)c1cnc(-c2ccc3cc(C#N)cnn23)cc1Nc1ccc2nccn2c1` [Example 974, (R)-6-(3-cyanopyrrolo[1,2-b]pyridazin-7-yl)-N-(2-fluoro-3-hydroxy-3-methylbutyl)-4-(imidazo[1,2-a]pyridin-6-ylamino)nicotinamide], for which the EC50 in assay [1] was determined as 112 nM. In assay [2], this compound returned a half-inhibitory concentration (IC50) of 1 nM.

For `CC(C)(O)[C@H](F)CNC(=O)c1cnc(-c2ccc3cc(C#N)cnn23)cc1Nc1ccn2nccc2c1` [Example 975, (R)-6-(3-cyanopyrrolo[1,2-b]pyridazin-7-yl)-N-(2-fluoro-3-hydroxy-3-methyl-butyl)-4-(pyrazolo[1,5-a]pyridin-5-ylamino) nicotinamide], in assay [1], the EC50 came out at 67 nM. For the same compound, the IC50 in assay [2] was less than 1 nM.
